Results from US10421761B2, “Compounds for kinase modulation, and indications therefor” (Plexxikon Inc., priority 2013, dated 2019).
Like-named read-outs stand apart in the source and are kept apart here.

What was measured:
B9 (HRAS Q61L) cell line = assay: B9 P-ERK cell activation assay (AlphaScreen); assay type: cell-based, mouse; conditions: Mus musculus, P-ERK cell activation, B9, read-out: Cell activity (EC50 μM) B9_pERK
Procedure: (§1) B9 is a squamous cell carcinoma cell line expressing activated HRAS that was isolated from a DMBA/TPA-induced mouse model of skin carcinogenesis (Stoler, et al. The Journal of Cell Biology, 1993, 122(5), 1103-17). IPC-298 is a human melanoma cell line that expresses activated NRAS (Aubert, et al. International Journal of Cancer, 1993, 54(5), 784-92). To determine whether compounds induce phosphorylated ERK and MEK, cells are plated in a 96-well dish and treated with an 8-point titration of compound for one hour at 37° C. The media is then removed and the cells are incubated with lysis buffer containing protease and phosphatase inhibitors. Phosphorylated ERK and MEK in the resulting lysates is detected using AlphaScreen™ technology. To detect phosphorylated ERK, cell lysates are incubated with streptavidin-coated donor beads, anti-mouse IgG acceptor beads, a biotinylated anti-ERK1/2 rabbit antibody, and a mouse antibody that recognizes ERK1/2 only when it is phosphorylated on Thr202 and Tyr204. The biotinylated ERK1/2 antibody will bind to both the streptavidin-coated donor beads and to ERK1/2 (regardless of its phosphorylation state), and the phospho-ERK1/2 antibody will bind to the acceptor beads and to ERK1/2 that is phosphorylated at Thr202/Tyr204. Excitation of the beads with laser light at 680 nm produces singlet oxygen, which is rapidly quenched unless the beads are in close proximity. When ERK is phosphorylated, both antibodies can bind the same protein, bringing the donor and acceptor beads into close proximity, producing a signal that can be measured at 580 nm. MEK phosphorylation is detected using a similar approach, only with antibodies directed against total MEK1/2 and MEK1/2 that is phosphorylated at Ser217 and Ser221.
(§2) Phospho-ERK AlphaScreen® assay. To determine the effects of compound treatment upon phosphorylation of ERK1/2, cells were plated in a 96-well dish and treated with an 8-point titration of compound for one hour at 37° C. before lysis. To detect pERK, cell lysates were incubated with streptavidin-coated AlphaScreen® donor beads, anti-mouse IgG AlphaScreen® acceptor beads, a biotinylated anti-ERK1/2 rabbit antibody, and a mouse antibody that recognizes ERK1/2 only when it is phosphorylated on Thr202 and Tyr204. The biotinylated ERK1/2 antibody binds to both the streptavidin-coated AlphaScreen® donor beads and to ERK1/2 (regardless of its phosphorylation state), and the phospho-ERK1/2 antibody binds to the acceptor beads and to ERK1/2 that is phosphorylated at Thr202/Tyr204. An increase in ERK1/2 phosphorylation at Thr202/Tyr204 brings the donor and acceptor AlphaScreen® beads into close proximity, generating a signal that can be quantified on an EnVision reader (Perkin Elmer).

[1] = system: A375 (BRAF V600E) cell line; assay: A375 P-ERK inhibition assay (AlphaScreen); assay type: cell-based, human; conditions: Homo sapiens, A-375; A375_P-ERK
Procedure: as §2

BRAF V600E = target: T1, BRAF V600E (Homo sapiens, UniProt P15056, V600E); assay: BRAF V600E biochemical kinase activity assay (AlphaScreen, biotin-MEK1 substrate); conditions: BRAF V600E biochemical inhibitory activity
T1 construct: purchased Upstate Biotechnology
Procedure: Compounds to be tested are diluted in dimethyl sulfoxide to a concentration of 0.1 mM. These are serially diluted 15 μL into 30 μL of dimethyl sulfoxide seven times in 96 well plates for a total of 8 dilution points, and for each dilution point 1 μL is added to a well of an assay plate. […] The reaction is started with addition of 10 μL of 200 μM ATP (i.e. final 100 μM ATP). After incubation of the kinase reaction for 45 minutes at room temperature, 5 μL/well of Stop Solution is added (25 mM Hepes pH 7.5, 100 mM EDTA, 0.01% BSA with donor beads (Streptavidin coated beads, Perkin Elmer), acceptor beads (Protein A coated, Perkin Elmer), and anti-phosphor MEK1/2 antibody (CellSignal), each at final concentration 10 μg/mL). The plates are incubated for 3 hours at room temperature and read on Envision reader (Perkin Elmer). Phosphorylation of Mek1 results in binding of the anti-phosphor-MEK1/2antibody and association of the donor and acceptor beads such that signal correlates with kinase activity. The signal versus compound concentration is used to determine the IC50.
The in vitro RAF kinase activities were determined by measuring phosphorylation of a biotinylated substrate peptide as described previously (Tsai, J. et al. Proc Natl Acad Sci USA 105, 3041-3046 (2008)). Compounds of formula (I), e.g., compound A, was also tested against a panel of 287 kinases at concentrations of 1 μM in duplicate. Kinases inhibited by over 50% were followed up by IC50 determination. The 287 kinases represent all major branches of the kinome phylogenetic tree. The inhibition screen of 287 kinases was carried out under contract as complementary panels at Invitrogen (Life Technologies, Wis., USA) SelectScreen™ profiling service, DiscoverX (CA, USA) KINOMEScan™ service, and Reaction Biology Corporation (PA, USA) Kinase HotSpot℠ service.

[2] = system: IPC-298 (NRAS Q61L) cell line; assay: IPC-298 P-ERK cell activation assay (AlphaScreen); assay type: cell-based, human; conditions: Homo sapiens, P-ERK cell activation, IPC-298, read-out: Cell activity (EC50 μM) IPC-298_P-ERK
Procedure: as §1, §2

T1 sequence (P15056 whole entry V600E): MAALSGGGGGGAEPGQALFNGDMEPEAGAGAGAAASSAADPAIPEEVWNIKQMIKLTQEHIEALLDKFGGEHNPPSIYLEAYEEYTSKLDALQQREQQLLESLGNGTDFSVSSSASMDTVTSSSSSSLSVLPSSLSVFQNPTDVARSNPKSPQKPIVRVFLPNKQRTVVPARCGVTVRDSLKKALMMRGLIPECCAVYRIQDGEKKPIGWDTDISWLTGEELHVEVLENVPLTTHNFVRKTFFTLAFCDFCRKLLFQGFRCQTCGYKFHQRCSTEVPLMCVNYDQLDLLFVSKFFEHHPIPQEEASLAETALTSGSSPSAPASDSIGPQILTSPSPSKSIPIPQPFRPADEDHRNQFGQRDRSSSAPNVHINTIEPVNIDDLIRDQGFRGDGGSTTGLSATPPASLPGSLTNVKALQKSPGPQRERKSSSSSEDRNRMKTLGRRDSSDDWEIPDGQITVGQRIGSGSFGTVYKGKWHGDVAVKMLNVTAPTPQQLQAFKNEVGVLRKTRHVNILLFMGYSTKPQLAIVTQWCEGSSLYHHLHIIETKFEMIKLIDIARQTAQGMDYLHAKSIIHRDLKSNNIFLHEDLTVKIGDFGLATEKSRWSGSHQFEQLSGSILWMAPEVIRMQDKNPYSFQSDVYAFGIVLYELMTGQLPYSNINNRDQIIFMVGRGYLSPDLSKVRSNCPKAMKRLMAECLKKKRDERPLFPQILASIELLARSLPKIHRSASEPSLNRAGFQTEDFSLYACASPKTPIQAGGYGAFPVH

| Compound | EC50 (B9 (HRAS Q61L) cell line; numeric bounds) [µM] | IC50 [1] [µM] | IC50 (BRAF V600E) [µM] | EC50 ([2]; numeric bounds) [µM] | EC50 (B9 (HRAS Q61L) cell line; class symbols) [µM] | EC50 ([2]; class symbols) [µM] |
| --- | --- | --- | --- | --- | --- | --- |
| Cc1cc2c(-c3sc(C(C)(C)C)nc3-c3cccc(NS(=O)(=O)N4CCCC4)c3F)ccnc2[nH]1 [P-2121, N-[3-[2-tert-butyl-5-(2-methyl-1H-pyrrolo[2,3-b]pyridin-4-yl)thiazol-4-yl]-2-fluoro-phenyl]pyrrolidine-1-sulfonamide] | > 10 | 0.0001 to 1 | 0.0001 to 1 | > 10 |  |  |
| CCC(C)S(=O)(=O)Nc1cccc(-c2nc(C(C)(C)C)sc2-c2ccnc(N)n2)c1F (centres unmarked) [P-2106, N-[3-[5-(2-aminopyrimidin-4-yl)-2-tert-butyl-thiazol-4-yl]-2-fluoro-phenyl]butane-2-sulfonamide] | > 10 | 0.0001 to 1 | 0.0001 to 1 | > 10 |  |  |
| COC(=O)N[C@@H](C)CNc1nccc(-c2nn(C(C)C)cc2-c2cc(Cl)cc(NS(=O)(=O)C3CC3)c2F)n1 [P-2170, methyl N-[(1S)-2-[[4-[4-[5-chloro-3-(cyclopropylsulfonylamino)-2-fluoro-phenyl]-1-isopropyl-pyrazol-3-yl]pyrimidin-2-yl]amino]-1-methyl-ethyl]carbamate] |  | 0.0001 to 1 | 0.0001 to 1 |  | 0.0001 to 1 | 0.0001 to 1 |
| O=C(c1cccc(NS(=O)(=O)N2CCCC2)c1F)c1c[nH]c2ncnc(NCC(O)CO)c12 (centres unmarked) [P-2096, N-[3-[4-(2,3-dihydroxypropylamino)-7H-pyrrolo[2,3-d]pyrimidine-5-carbonyl]-2-fluoro-phenyl]pyrrolidine-1-sulfonamide] | > 10 | > 10 | 0.0001 to 1 | > 10 |  |  |
| COC(=O)N[C@@H](C)CNc1nccc(-c2sc(-c3ccccc3)nc2-c2cccc(NS(=O)(=O)N3CC[C@H](F)C3)c2F)n1 [P-2153, methyl N-[(1S)-2-[[4-[4-[2-fluoro-3-[[(3S)-3-fluoropyrrolidin-1-yl]sulfonylamino]phenyl]-2-phenyl-thiazol-5-yl]pyrimidin-2-yl]amino]-1-methyl-ethyl]carbamate] |  | 0.0001 to 1 | 0.0001 to 1 |  | 0.0001 to 1 | 0.0001 to 1 |
| CC(C)(C)c1nc(-c2cccc(NS(=O)(=O)N3CC[C@@H](F)C3)c2F)c(-c2ccnc(N)n2)s1 [P-2129, (3R)-N-[3-[5-(2-aminopyrimidin-4-yl)-2-tert-butyl-thiazol-4-yl]-2-fluoro-phenyl]-3-fluoro-pyrrolidine-1-sulfonamide] |  | 0.0001 to 1 | 0.0001 to 1 |  | 0.0001 to 1 | 0.0001 to 1 |
| CC(C)S(=O)(=O)Nc1ccc(F)c(C(=O)c2c[nH]c3nccc(C#N)c23)c1F [P-2017, N-[3-(4-cyano-1H-pyrrolo[2,3-b]pyridine-3-carbonyl)-2,4-difluoro-phenyl]propane-2-sulfonamide] | > 10 | 0.0001 to 1 | 0.0001 to 1 | > 10 |  |  |
| O=C(c1c(F)ccc(NS(=O)(=O)N2CCOCC2)c1F)c1c[nH]c2ncncc12 [P-2031, N-[2,4-difluoro-3-(7H-pyrrolo[2,3-d]pyrimidine-5-carbonyl)phenyl]morpholine-4-sulfonamide] | > 10 | > 10 | 1 to 10 | > 10 |  |  |
| CCCN(C)S(=O)(=O)Nc1cccc(C(=O)c2c[nH]c3ncnc(C)c23)c1F [P-2086, 5-[2-fluoro-3-[[methyl(propyl)sulfamoyl]amino]benzoyl]-4-methyl-7H-pyrrolo[2,3-d]pyrimidine] | > 10 | 0.0001 to 1 | 0.0001 to 1 | > 10 |  |  |
| O=C(c1cccc(NS(=O)(=O)N2CCCC2)c1F)c1c[nH]c2ncnc(NCC3CC(O)C3)c12 (centres unmarked) [P-2098, N-[2-fluoro-3-[4-[(3-hydroxycyclobutyl)methylamino]-7H-pyrrolo[2,3-d]pyrimidine-5-carbonyl]phenyl]pyrrolidine-1-sulfonamide] | > 10 | 0.0001 to 1 | 0.0001 to 1 | > 10 |  |  |
| CC(C)(C)c1nc(-c2cccc(NS(=O)(=O)N3CCCC3)c2F)c(-c2ncnc3[nH]ccc23)s1 [P-2122, N-[3-[2-tert-butyl-5-(7H-pyrrolo[2,3-d]pyrimidin-4-yl)thiazol-4-yl]-2-fluoro-phenyl]pyrrolidine-1-sulfonamide] | > 10 | 0.0001 to 1 | 0.0001 to 1 | > 10 |  |  |
| CC(C)Nc1ncnc2[nH]cc(C(=O)c3c(F)ccc(NS(=O)(=O)N(C)C)c3F)c12 [P-2045, 5-[3-(dimethylsulfamoylamino)-2,6-difluoro-benzoyl]-4-(isopropylamino)-7H-pyrrolo[2,3-d]pyrimidine] | > 10 | 0.0001 to 1 | 0.0001 to 1 | > 10 |  |  |
| CCN(CC)S(=O)(=O)Nc1cc(Cl)cc(-c2cn(C(C)C)nc2-c2ccnc(NC[C@H](C)NC(=O)OC)n2)c1F [P-2165, methyl N-[(1S)-2-[[4-[4-[5-chloro-3-(diethylsulfamoylamino)-2-fluoro-phenyl]-1-isopropyl-pyrazol-3-yl]pyrimidin-2-yl]amino]-1-methyl-ethyl]carbamate] | > 10 | 0.0001 to 1 | 0.0001 to 1 | > 10 |  |  |
| O=C(c1c(F)ccc(NS(=O)(=O)C2CCCCC2)c1F)c1c[nH]c2ncncc12 [P-2027, N-[2,4-difluoro-3-(7H-pyrrolo[2,3-d]pyrimidine-5-carbonyl)phenyl]cyclohexanesulfonamide] | > 10 | 0.0001 to 1 | 0.0001 to 1 | > 10 |  |  |
| CCN(C)S(=O)(=O)Nc1cccc(C(=O)c2c[nH]c3ncnc(NCC4CC4)c23)c1F [P-2064, 4-(cyclopropylmethylamino)-5-[3-[[ethyl(methyl)sulfamoyl]amino]-2-fluoro-benzoyl]-7H-pyrrolo[2,3-d]pyrimidine] | > 10 | 0.0001 to 1 | 0.0001 to 1 | > 10 |  |  |
| COc1ncnc2[nH]cc(C(=O)c3cccc(NS(=O)(=O)N4CCCC4)c3F)c12 [P-2084, N-[2-fluoro-3-(4-methoxy-7H-pyrrolo[2,3-d]pyrimidine-5-carbonyl)phenyl]pyrrolidine-1-sulfonamide] | > 10 | 0.0001 to 1 | 0.0001 to 1 | > 10 |  |  |
| O=C(O)CNc1ncnc2[nH]cc(C(=O)c3cccc(NS(=O)(=O)N4CCCC4)c3F)c12 [P-2109, 2-[[5-[2-fluoro-3-(pyrrolidin-1-ylsulfonylamino)benzoyl]-7H-pyrrolo[2,3-d]pyrimidin-4-yl]amino]acetic acid] | > 10 | 1 to 10 | 0.0001 to 1 | > 10 |  |  |
